melting point	Compound
181 to 183 °C	C#Cc1ccc(C(CC2CCCC2)C(=O)Nc2nccs2)cc1 (stereo not drawn) [Example 1, 3-Cyclopentyl-2-(4-ethynyl-phenyl)-N-thiazol-2-yl-propionamide]
185 to 187 °C	O=C(Nc1nccs1)C(CC1CCCC1)c1ccc(C#Cc2ccccn2)cc1 (stereo not drawn) [Example 9, 3-Cyclopentyl-2-(4-pyridin-2-ylethynyl-phenyl)-N-thiazol-2-yl-propionamide]
149 to 151 °C	O=C(Nc1nccs1)C(CC1CCCC1)c1ccc(C#Cc2cncnc2)cc1 (stereo not drawn) [Example 10, 3-Cyclopentyl-2-(4-pyrimidin-5-ylethynyl-phenyl)-N-thiazol-2-yl-propionamide]

Second part, the molecule before the results:

Compound	melting point
CN(C)CC#Cc1ccc(C(CC2CCCC2)C(=O)Nc2nccs2)cc1 (stereo not drawn) [Example 7]	164 to 167 °C
O=C(Nc1nccs1)C(CC1CCCC1)c1ccc(C#CCO)cc1 (stereo not drawn) [Example 6, 3-Cyclopentyl-2-[4-(3-hydroxy-prop-1-ynyl)-phenyl]-N-thiazol-2-yl-propionamide]	220 to 222 °C
COCC#Cc1ccc(C(CC2CCCC2)C(=O)Nc2nccs2)cc1 (stereo not drawn) [Example 3, 3-Cyclopentyl-2-[4-(3-methoxy-prop-1-ynyl)-phenyl]-N-thiazol-2-yl-propionamide]	170 to 172 °C
CCC(C)(O)C#Cc1ccc(C(CC2CCCC2)C(=O)Nc2nccs2)cc1 (stereo not drawn) [Example 4, 3-Cyclopentyl-2-[4-(3-hydroxy-3-methyl-pent-1-ynyl)-phenyl]-N-thiazol-2-yl-propionamide]	172 to 174 °C
O=C(Nc1nccs1)C(CC1CCCC1)c1ccc(C#CC2(O)CCCCC2)cc1 (stereo not drawn) [Example 2, 3-Cyclopentyl-2-[4-(1-hydroxy-cyclohexylethynyl)-phenyl]-N-thiazol-2-yl-propionamide]	172 to 173 °C
CC(O)CC#Cc1ccc(C(CC2CCCC2)C(=O)Nc2nccs2)cc1 (stereo not drawn) [Example 5, 3-Cyclopentyl-2-[4-(4-hydroxy-pent-1-ynyl)-phenyl]-N-thiazol-2-yl-propionamide]	162 to 163 °C
